TGI and GI50 data for 16 molecules are collected here from PubChem BioAssay (NCI).

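Results reflect a 48-hour exposure of cells in 96-well plates to compound at five concentrations. GI50: concentration for 50% inhibition of growth. TGI: total growth inhibition.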

Common to all, as to assay: growth of human tumour cells (NCI), 48 h
Assay [1] deals with SK-MEL-5 melanoma.
In assay [2] the test system is UO-31 renal.
Assay [3] concerns MOLT-4 leukemia.
Assay [4] relates to SK-OV-3 ovarian.
Assay [5] has as its system HCC-2998 colon.
Assay [6] concerns EKVX NSCLC.
In assay [7] the test system is NCI-H460 lung.
In assay [8] the test system is NCI-H522 lung.
For assay [9], the system named is SR leukemia.

`O=C1CC2=CCCC2O1` (stereo not given): the TGI in assay [1], in [2], in assay [3], in [4], in assay [5] and in assay [6] was above 100 µM each time. Also, the TGI in assay [7] and in assay [8] was above 100 µM throughout.
With `CC(=O)CC(=O)Nc1ccc(OS(N)(=O)=O)cc1`, the TGI in assay [1], in assay [2], in assay [3], in [4], in assay [5] and in assay [6] was above 100 µM in each case. Further, the TGI in [7], in [9] and in assay [8] was above 100 µM each time.
As for `CCOC(=O)N1C/C(=C\c2ccc(N(C)C)cc2)C(=O)/C(=C/c2ccc(N(C)C)cc2)C1`, the TGI in [1], in [2], in assay [3], in assay [4], in assay [5] and in assay [6] was above 100 µM throughout. In addition, the TGI in assay [7], in assay [9] and in assay [8] was above 100 µM each time.
For the molecule `CC[P+](C)(C)CC`, the TGI in assay [1], in assay [2], in [3], in [4], in assay [5] and in assay [6] was above 100 µM in each case. Moreover, the TGI in [7] and in [9] was above 100 µM each time.
For `CC(C)CC1CC2C(=O)N(c3ccccc3)C(=O)C2c2[nH]c3ccccc3c21` (stereo not given), the TGI in assay [1] was above 100 µM; in assay [2] it was 79.9 µM; in [3], above 58.7 µM; in assay [4], 43.6 µM; in [5], above 31.6 µM; in assay [6], above 100 µM. Also, the TGI in [7] is above 100 µM; in [9], 76.4 µM; in assay [8], above 100 µM.
On to `COc1ccc(C2=NC(CO)[C@H](c3ccccc3)O2)cc1OC` (stereo not given in full), for which the TGI in assay [1], in assay [2], in assay [3], in assay [4], in [5] and in [7] was above 100 µM throughout. Also, in [8], the TGI was above 100 µM.
As for `Cc1c(C(=O)Nc2ccc(Oc3ccnc4cc(OCC(C)(C)O)ccc34)c(F)c2)c(=O)n(-c2ccccc2)n1C`, the GI50 in assay [4] is 6.46 µM; in [5], above 100 µM; in [9], 3.66 µM; in [8] it was 8.43 µM. Besides, the TGI in assay [4], in assay [5], in assay [9] and in assay [8] was above 100 µM each time.
Take `NC(=O)c1c(-c2ccccc2)c(-c2ccccc2)cc2c(=O)c3ccccc3[nH]c12`: the TGI was 32.2 µM in [1]; 80.2 µM in [2]; 44.7 µM in assay [3]; 54.2 µM in assay [4]; above 100 µM in [5]; above 100 µM in assay [6]. In addition, the TGI was 76.8 µM in assay [7] and 20 µM in assay [8].
In the case of `O=C(OCc1ccccc1)N1N=NC2C3CC(OCc4ccccc4)(OCc4ccccc4)C(O3)C21` (stereo not given), the TGI was 28.4 µM in [2]; 60.7 µM in assay [3]; above 100 µM in assay [4]; 83.2 µM in assay [5]; above 100 µM in assay [7].
Consider `CCCOC(=O)C1C(c2ccc(OC)cc2)NC(c2ccc(OC)cc2)C(C(=O)OCCC)S1(=O)=O` (stereo not given), for which the GI50 in assay [1], in assay [2], in [3], in [5], in assay [6] and in [8] was above 100 µM each time. Also, the TGI in [1], in assay [2], in assay [3], in assay [4], in assay [5] and in assay [6] was above 100 µM in each case. Also, the TGI in [9] and in assay [8] was above 100 µM in each case.
On to `COc1ccc(C)cc1-c1ccc(-c2cc(C)ccc2OC)o1`, for which the TGI in assay [2], in assay [3], in assay [4], in assay [5], in assay [6] and in [7] was above 100 µM in each case. The same molecule returned a TGI in [8] above 100 µM.
On to `C=CCN=C1NC(=O)C(CC(=O)Nc2ccc([N+](=O)[O-])cc2[N+](=O)[O-])S1` (stereo not given), for which the TGI in assay [1], in [2], in [3], in assay [4], in assay [5] and in [6] was above 100 µM each time. The TGI in [7] and in assay [8] was above 100 µM throughout.
`NNC(=O)C(=O)N/N=C1\CCCC1C(=O)CCC(=O)Nc1cccc(Cl)c1` (stereo not given): the TGI in assay [1], in [2], in [3], in [5], in assay [6] and in assay [7] was above 100 µM in each case.
On to `Oc1ccc(Br)cc1C=Nc1ccc(Oc2ccc(N=Cc3cc(Br)ccc3O)cc2)cc1`, for which the TGI in [1], in [2], in assay [3], in [4], in assay [5] and in [6] was above 19.6 µM in each case. The TGI in [7], in assay [9] and in assay [8] was above 19.6 µM each time.
`O=S(=O)(c1ccccc1)C1(C2(S(=O)(=O)c3ccccc3)CCN=N2)CCN=N1` (stereo not given): the TGI in [2], in assay [3], in assay [4], in assay [5], in assay [6] and in [7] was above 100 µM in each case. Also, the TGI in [9] and in assay [8] was above 100 µM in each case.
For `O=[N+]([O-])C(=C1c2ccccc2-c2ccccc21)[N+](=O)[O-]`, the TGI in assay [2], in assay [3], in assay [5], in assay [6], in [7] and in assay [9] was above 100 µM each time. For the same molecule, the TGI in assay [8] is above 100 µM.
